What is called IC50 is the concentration that gives 50% inhibition. A lower IC50 goes with greater potency.

For this assay, the target named is T1, MR (Homo sapiens, UniProt P08235).
T1 construct: expressed in transfected cells; host or cells: Huh7 human liver cells, transient transfection
T1 sequence (P08235 726-964 limits assumed): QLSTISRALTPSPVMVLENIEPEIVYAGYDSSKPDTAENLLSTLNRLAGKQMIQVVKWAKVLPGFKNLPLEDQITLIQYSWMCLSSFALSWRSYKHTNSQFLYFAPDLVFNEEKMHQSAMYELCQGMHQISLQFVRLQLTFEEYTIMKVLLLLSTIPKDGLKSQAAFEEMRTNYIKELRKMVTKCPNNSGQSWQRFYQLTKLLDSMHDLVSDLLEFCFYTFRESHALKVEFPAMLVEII
As to the kind of experiment: Cell-Based Reporter Assay (Gal4 DBD-MR LBD luciferase reporter, antagonist mode).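 Note: cells co-transfected with a Gal4 response element luciferase plasmid, compound exposure overnight before lysis and luminescence counting, IC50 reflects reduced aldosterone-stimulated reporter signal.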 Conditions: antagonist mode vs aldosterone at EC80; transfected human liver cells (Huh7); luciferase readout; Examples 3, 6, 12 and 13 tested in analogous format with minor variations. For orientation: A reporter such as luciferase makes a cellular process visible.
Compound `COC(=O)c1ccc(C2=NN(c3ccc(C#N)c(C)c3)C(C3CCCC3)C2)nc1OC` (stereo not drawn) [Example 1, Methyl 6-(1-(4-cyano-3-methylphenyl)-5-cyclopentyl-4,5-dihydro-1H-pyrazol-3-yl)-2-methoxynicotinate] returned an IC50 of 34.6 nM. Then `COC(=O)c1ccc(C2=NN(c3ccc(C#N)c(C)c3)[C@@H](C3CCCC3)C2)nc1OC` [Example 2], with 9.2 nM; and `COc1cc(N2N=C(c3ccc(C(=O)O)c(OC)n3)CC2C2CCCC2)ccc1C#N` (stereo not drawn) [Example 6, 6-[1-(4-cyano-3-methoxy-phenyl)-5-cyclopentyl-4,5-dihydro-1H-pyrazol-3-yl]-2-methoxy-nicotinic acid], with 9 nM; and `COc1cc(C2=NN(c3ccc(C#N)c(Cl)c3)[C@@H](C3CCCC3)C2)ncc1C(=O)O` [Example 13, (R)-6-(1-(3-chloro-4-cyanophenyl)-5-cyclopentyl-4,5-dihydro-1H-pyrazol-3-yl)-4-methoxynicotinic acid], with 2000 nM. Then `COC(=O)c1ccc(C2=NN(c3ccc(C#N)c(C)n3)[C@@H](C3CCCC3)C2)cc1` [Example 14, (R)-methyl 4-(1-(5-cyano-6-methylpyridin-2-yl)-5-cyclopentyl-4,5-dihydro-1H-pyrazol-3-yl)benzoate], with above 2260 nM; and `Cc1nc(N2N=C(c3ccc(C(N)=O)cc3)C[C@@H]2C2CCCC2)ccc1C#N` [Example 16, (R)-4-(1-(5-cyano-6-methylpyridin-2-yl)-5-cyclopentyl-4,5-dihydro-1H-pyrazol-3-yl)benzamide], with 13.4 nM; and `Cc1nc(N2N=C(c3ccc(S(C)(=O)=O)cc3)C[C@@H]2C2CCCC2)ccc1C#N` [Example 17, (R)-6-(5-cyclopentyl-3-(4-(methylsulfonyl)phenyl)-4,5-dihydro-1H-pyrazol-1-yl)-2-methylnicotinonitrile], with 8.4 nM. The same measure for `Cc1nc(N2N=C(c3ccc4ncn(C)c(=O)c4c3)C[C@@H]2C2CCCC2)ccc1C#N` [Example 18, (R)-6-(5-cyclopentyl-3-(3-methyl-4-oxo-3,4-dihydroquinazolin-6-yl)-4,5-dihydro-1H-pyrazol-1-yl)-2-methylnicotinonitrile]: 1.9 nM; for `Cc1nc(N2N=C(c3ccc4c(c3)NC(=O)CO4)C[C@@H]2C2CCCC2)ccc1C#N` [Example 19, (R)-6-(5-cyclopentyl-3-(3-oxo-3,4-dihydro-2H-benzo[b][1,4]oxazin-6-yl)-4,5-dihydro-1H-pyrazol-1-yl)-2-methylnicotinonitrile]: 10.8 nM. In the case of `Cc1nc(N2N=C(c3ccc(S(N)(=O)=O)cc3)C[C@@H]2C2CCCC2)ccc1C#N` [Example 20, (R)-4-(1-(5-cyano-6-methylpyridin-2-yl)-5-cyclopentyl-4,5-dihydro-1H-pyrazol-3-yl)benzenesulfonamide], the 50% inhibitory concentration (IC50) was determined as 19.7 nM. For `Cc1nc(N2N=C(c3cccc(S(C)(=O)=O)c3)C[C@@H]2C2CCCC2)ccc1C#N` [Example 21, (R)-6-(5-cyclopentyl-3-(3-(methylsulfonyl)phenyl)-4,5-dihydro-1H-pyrazol-1-yl)-2-methylnicotinonitrile], the IC50 was 105 nM. Then `CCS(=O)(=O)c1ccc(C2=NN(c3ccc(C#N)c(C)n3)[C@@H](C3CCCC3)C2)cc1` [Example 22, (R)-6-(5-cyclopentyl-3-(4-(ethylsulfonyl)phenyl)-4,5-dihydro-1H-pyrazol-1-yl)-2-methylnicotinonitrile], with 13.5 nM; and `Cc1cc(C2=NN(c3ccc(C#N)c(C)n3)[C@@H](C3CCCC3)C2)ccc1C#N` [Example 23, (R)-6-(3-(4-cyano-3-methylphenyl)-5-cyclopentyl-4,5-dihydro-1H-pyrazol-1-yl)-2-methylnicotinonitrile], with 113 nM; and `Cc1cc(C2=NN(c3ccc(C#N)c(C)n3)[C@@H](C3CCCC3)C2)ccc1C(N)=O` [Example 24, (R)-4-(1-(5-cyano-6-methylpyridin-2-yl)-5-cyclopentyl-4,5-dihydro-1H-pyrazol-3-yl)-2-methylbenzamide], with 25 nM.

For the compound `Cc1nc(N2N=C(c3ccc(NS(C)(=O)=O)cc3)C[C@@H]2C2CCCC2)ccc1C#N` [Example 25, (R)—N-(4-(1-(5-cyano-6-methylpyridin-2-yl)-5-cyclopentyl-4,5-dihydro-1H-pyrazol-3-yl)phenyl)methanesulfonamide], the IC50 turned out to be 48.4 nM.

For `COc1cc(C2=NN(c3ccc(C#N)c(C)n3)[C@@H](C3CCCC3)C2)ccc1C#N` [Example 26, (R)-6-(3-(4-cyano-3-methoxyphenyl)-5-cyclopentyl-4,5-dihydro-1H-pyrazol-1-yl)-2-methylnicotinonitrile], the IC50 stood at 85.3 nM. Regarding `COc1cc(C2=NN(c3ccc(C#N)c(C)n3)[C@@H](C3CCCC3)C2)ccc1C(N)=O` [Example 27], inhibition was half-maximal at 5.2 nM (IC50).

`COc1cccc(C2=NN(c3ccc(C#N)c(C)n3)[C@@H](C3CCCC3)C2)n1` [Example 28, (R)-6-(5-cyclopentyl-3-(6-methoxypyridin-2-yl)-4,5-dihydro-1H-pyrazol-1-yl)-2-methylnicotinonitrile] returned an IC50 of 97.6 nM. The compound `Cc1nc(N2N=C(c3cccc(C(N)=O)c3)C[C@@H]2C2CCCC2)ccc1C#N` [Example 29, (R)-3-(1-(5-cyano-6-methylpyridin-2-yl)-5-cyclopentyl-4,5-dihydro-1H-pyrazol-3-yl)benzamide] registered an IC50 of 30.6 nM. The compound `Cc1nc(N2N=C(c3ccc4c(c3)CNC4=O)C[C@@H]2C2CCCC2)ccc1C#N` [Example 30, (R)-6-(5-cyclopentyl-3-(1-oxoisoindolin-5-yl)-4,5-dihydro-1H-pyrazol-1-yl)-2-methylnicotinonitrile] showed an IC50 of 9.7 nM. Then `Cc1nc(N2N=C(c3ccc4c(c3)C(=O)NC4)C[C@@H]2C2CCCC2)ccc1C#N` [Example 31, (R)-6-(5-cyclopentyl-3-(3-oxoisoindolin-5-yl)-4,5-dihydro-1H-pyrazol-1-yl)-2-methylnicotinonitrile], with 11.2 nM. `COC(=O)c1cc(C2=NN(c3ccc(C#N)c(C)n3)[C@@H](C3CCCC3)C2)ccc1S(C)(=O)=O` [Example 35, (R)-methyl 5-(1-(5-cyano-6-methylpyridin-2-yl)-5-cyclopentyl-4,5-dihydro-1H-pyrazol-3-yl)-2-(methylsulfonyl)benzoate]: it took 8.9 nM to reach half-maximal inhibition (IC50).

In turn, `COc1ccc(C2=NN(c3ccc(C#N)c(C)n3)[C@@H](C3CCCC3)C2)cc1C(=O)O` [Example 36, (R)-5-(1-(5-cyano-6-methylpyridin-2-yl)-5-cyclopentyl-4,5-dihydro-1H-pyrazol-3-yl)-2-methoxybenzoic acid] came in with an IC50 of 225 nM.

As to `COC(=O)c1ccc(C2=NN(c3ccc(C#N)c(C)n3)[C@@H](C3CCCC3)C2)c(OC)c1` [Example 38, (R)-methyl 4-(1-(5-cyano-6-methylpyridin-2-yl)-5-cyclopentyl-4,5-dihydro-1H-pyrazol-3-yl)-3-methoxybenzoate], it took 82.2 nM to reach half-maximal inhibition (IC50). Then `COc1cc(C(=O)O)ccc1C1=NN(c2ccc(C#N)c(C)n2)[C@@H](C2CCCC2)C1` [Example 39, (R)-methyl 4-(1-(5-cyano-6-methylpyridin-2-yl)-5-cyclopentyl-4,5-dihydro-1H-pyrazol-3-yl)-3-methoxybenzoic acid], with 7 nM.

`CCOc1cc(C2=NN(c3ccc(C#N)c(C)n3)[C@@H](C3CCCC3)C2)ccc1C(=O)O` [Example 41, (R)-4-(1-(5-cyano-6-methylpyridin-2-yl)-5-cyclopentyl-4,5-dihydro-1H-pyrazol-3-yl)-2-ethoxybenzoic acid] had an IC50 of 9.1 nM. Then `CCOc1cc(C2=NN(c3ccc(C#N)c(C)n3)[C@@H](C3CCCC3)C2)ccc1C(N)=O` [Example 42, (R)-4-(1-(5-cyano-6-methylpyridin-2-yl)-5-cyclopentyl-4,5-dihydro-1H-pyrazol-3-yl)-2-ethoxybenzamide], with 5 nM. Then `COc1cccc(C2=NN(c3ccc(C#N)c(C)n3)[C@@H](C3CCCC3)C2)c1` [Example 43, (R)-6-(5-cyclopentyl-3-(3-methoxyphenyl)-4,5-dihydro-1H-pyrazol-1-yl)-2-methylnicotinonitrile], with 130 nM; and `Cc1nc(N2N=C(c3ccc4c(c3)CCC(=O)N4)C[C@@H]2C2CCCC2)ccc1C#N` [Example 45, (R)-6-(5-cyclopentyl-3-(2-oxo-1,2,3,4-tetrahydroquinolin-6-yl)-4,5-dihydro-1H-pyrazol-1-yl)-2-methylnicotinonitrile], with 20.6 nM. The same measure for `Cc1nc(N2N=C(c3ccc4c(c3)OCC(=O)N4)C[C@@H]2C2CCCC2)ccc1C#N` [Example 46, (R)-6-(5-cyclopentyl-3-(3-oxo-3,4-dihydro-2H-benzo[b][1,4]oxazin-7-yl)-4,5-dihydro-1H-pyrazol-1-yl)-2-methylnicotinonitrile]: 42 nM; for `Cc1nc(N2N=C(c3ccc4c(c3)CNC(=O)N4)C[C@@H]2C2CCCC2)ccc1C#N` [Example 47, (R)-6-(5-cyclopentyl-3-(2-oxo-1,2,3,4-tetrahydroquinazolin-6-yl)-4,5-dihydro-1H-pyrazol-1-yl)-2-methylnicotinonitrile]: 12 nM. `CCOc1nc(C2=NN(c3ccc(C#N)c(C)n3)[C@@H](C3CCCC3)C2)ccc1C(=O)O` [Example 51, (R)-6-(1-(5-cyano-6-methylpyridin-2-yl)-5-cyclopentyl-4,5-dihydro-1H-pyrazol-3-yl)-2-ethoxynicotinic acid] registered an IC50 of 8.2 nM. Then `COc1cc(C2=NN(c3ccc(C#N)c(C)n3)[C@@H](C3CCCC3)C2)ccc1O` [Example 52, (R)-6-(5-cyclopentyl-3-(4-hydroxy-3-methoxyphenyl)-4,5-dihydro-1H-pyrazol-1-yl)-2-methylnicotinonitrile], with 62.3 nM.

The values above are taken from patent US20120022058A1, “4,5-DIHYDRO-1H-PYRAZOLE COMPOUNDS AND THEIR PHARMACEUTICAL USES” (Pfizer Inc., priority 2009, published 2012).
